The record followed here is patent US8853424B2 (Japan Science and Technology Agency, priority 2008, dated 2014).

Molecules are shown by their SMILES. pIC50: −log10 of the molar value. Where two headings read alike, the source gives them in different places.

Test [1] relates to transglutaminase (TGase). Nature of the test: Measurement of TG (TGase inhibitory activity, monodansyl cadaverine / N,N-dimethylcasein fluorescence, FDSS 3000). Format: biochemical. The method, boiled down:
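Compound (1 μL of 10 mM stock) added to 0.1 mL reaction: 100 mM HEPES-NaOH pH 7.5, 1 mM CaCl2, 20 μM monodansyl cadaverine, 0.05 mg/mL N,N-dimethylcasein, 5 μg/mL TGase. Rate of fluorescence change at 340 nm measured; DMSO control set to 100; TG50 is the concentration halving activity.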

Test [2] concerns Truncated N-terminal huntington 150 Q-EGFP-Neuron 2a cells. Nature of the test: Measurement of x-Fold (polyglutamine aggregation inhibitory activity). The test is classed as cell-based. The method, then: In the present invention, the polyglutamine aggregation inhibitory activity (x-Fold) can be measured, for example, by the method described in the Example.
The number of the aggregated cells, and the total number of cells were counted by Array Scan V T1 (manufactured by Cellomics, Pittuburg, USA), and the ratio of the aggregated cells to the total number of cells was determined (x-Fold). […]

For test [3], the system named is SOC (store operated calcium channel). Nature of the test: Measurement of SOC IC50 (thapsigargin store depletion, calcium re-addition, CHO cells). The test is classed as cell-based. Particulars: read-out: SOC IC50. As for the experimental part:
The SOC (store operated calcium channel)-suppressive action can be measured by the method described in the Example and using, for example, FDSS 3000.
CHO cell culture medium was replaced with a BSS solution which is an extracellular fluidfree of calcium, the compound of the present invention was added 1 min later, and 1 μM thapsigargin was allowed to act thereon 2 min later to deplete intracellular calcium store. […]

The mark [4] stands for this setting: TGase activity with compound (10 mM, 1 μL in 0.1 ml enzyme reaction solution), DMSO control taken as 100.
Where [5] appears, read: TGase inhibitory activity value, Table 1.
Setting [6] is: polyglutamine aggregation inhibitory activity, Table 1.
[7] abbreviates: ratio of aggregated cells to total number of cells, compound 20 μM, 20 hr, almost 1 without compound, smaller = stronger inhibition.
Where [8] appears, read: Cricetulus griseus, CHO, CHO cells, 1 μM thapsigargin, 2 mM calcium chloride.
Where [9] appears, read: Cricetulus griseus, CHO, Table 1.
Where [10] appears, read: CHO cells, 1 μM thapsigargin, 2 mM calcium chloride.

One may read the pIC50 as −log10 of the IC50, conventionally taken in molar units. Turning to `NCCCCC(N)C(=O)OB(c1ccccc1)c1ccccc1` (centres unmarked) [Example 271, diphenyl(lysinate-O,N)borane], the “TGase activity remaining (% of DMSO control = 100)” value in test [1] (setting [4]) and in test [1] (setting [5]) was 109 throughout. The x-Fold in test [2] (setting [6]) and in test [2] (setting [7]) was 1.07 throughout. Further, the negative logarithm of the IC50 (pIC50) in test [3] (setting [8]) and in test [3] (setting [9]) was 6.30 each time.
As to `NCC(N)C(=O)OB(c1ccccc1)c1ccccc1` (centres unmarked) [Example 272, diphenyl(2,3-diaminopropionate-O,N)borane], the “TGase activity remaining (% of DMSO control = 100)” value was determined as 83 in test [1] (setting [4]) and 83 in test [1] (TGase inhibitory activity value, Table 1, listed as 2043). For the same compound, the x-Fold in test [2] (polyglutamine aggregation inhibitory activity, Table 1, listed as 2043) was determined as 0.09; in test [2] (setting [7]), 0.09. In addition, the negative-log IC50 (pIC50) in test [3] (setting [8]) and in test [3] (setting [9]) was 6.52 throughout.
With `NC(=O)CCC(N)C(=O)OB(c1ccccc1)c1ccc(Oc2ccc(B(OC(=O)C(N)CCC(N)=O)c3ccccc3)cc2)cc1` (centres unmarked) [Example 273, bis(4,4′-(phenyl-glutamineboryl)phenyl)ether], the “TGase activity remaining (% of DMSO control = 100)” value is 83 in test [1] (setting [4]) and 83 in test [1] (TGase inhibitory activity value, Table 1, listed as 1024). In addition, the x-Fold was determined as 0.56 in test [2] (polyglutamine aggregation inhibitory activity, Table 1, listed as 1024) and 0.56 in test [2] (setting [7]). The negative-log IC50 (pIC50) in test [3] (setting [10]) is 6.60.
As for `NC(=O)CC(N)C(=O)OB(c1ccccc1)c1ccc(Oc2ccc(B(OC(=O)C(N)CC(N)=O)c3ccccc3)cc2)cc1` (centres unmarked) [Example 274, bis(4,4′-(phenylasparagineboryl)phenyl)ether], the “TGase activity remaining (% of DMSO control = 100)” value in test [1] (setting [4]) came to 56. Further, the x-Fold in test [2] (setting [7]) is 0.59. In test [3] (setting [10]), the pIC50 is 6.52.
In the case of `NC(CCC(=O)O)C(=O)OB(c1ccccc1)c1ccc(Oc2ccc(B(OC(=O)C(N)CCC(=O)O)c3ccc(CO)cc3)cc2)cc1` (centres unmarked) [Example 275, (4-(phenyl-glutamic acid boryl)phenyl)-(4′-(hydroxymethylphenyl-glutamic acid boryl)phenyl)ether], in test [1] (setting [4]), the “TGase activity remaining (% of DMSO control = 100)” value came out at 117. In addition, the x-Fold in test [2] (setting [7]) turned out to be 0.67. Further, the negative logarithm of the IC50 (pIC50) in test [3] (setting [8]) was 6.52.
Regarding `O=C(OB(c1ccccc1)c1ccccc1)C1CCCN1` (centres unmarked) [Example 277, diphenyl(prolinate-O,N)borane], the “TGase activity remaining (% of DMSO control = 100)” value in test [1] (setting [4]) and in test [1] (setting [5]) was 105 in each case. Also, the x-Fold in test [2] (setting [6]) and in test [2] (setting [7]) was 0.98 each time. In addition, the pIC50 in test [3] (setting [8]) and in test [3] (setting [9]) was 6.52 each time.
Take `NCCOB(c1ccccc1)c1cccc(COCc2cccc(Oc3ccccc3)c2)c1` [Example 278, (3-phenoxybenzyl)-(3′-(phenyl-2-aminoethoxyboryl)benzyl)ether]: the “TGase activity remaining (% of DMSO control = 100)” value in test [1] (setting [4]) and in test [1] (setting [5]) was 2 throughout. Besides, the x-Fold in test [2] (setting [6]) and in test [2] (setting [7]) was 1.08 throughout. Moreover, the pIC50 in test [3] (setting [8]) and in test [3] (setting [9]) was 6.52 each time.
For the compound `Cc1ccc(B(OC(=O)C(N)CC(N)=O)c2ccc(C)c(Cl)c2)cc1Cl` (centres unmarked) [Example 282, di(3-chloro-4-methylphenyl)(asparaginate-O,N)borane], in test [1] (setting [4]), the “TGase activity remaining (% of DMSO control = 100)” value came out at 112. Besides, the x-Fold in test [2] (setting [7]) is given as 0.95. For the same compound, the pIC50 in test [3] (setting [8]) is 6.52.
With `Cc1ccc(B(Sc2ccccc2N)c2ccc(C)c(Cl)c2)cc1Cl` [Example 283, di(3-chloro-4-methylphenyl) 2-aminophenylthioborane], the “TGase activity remaining (% of DMSO control = 100)” value in test [1] (setting [4]) and in test [1] (setting [5]) was 12 throughout. The x-Fold in test [2] (setting [6]) and in test [2] (setting [7]) was 0.83 throughout. Also, the pIC50 in test [3] (setting [8]) and in test [3] (setting [9]) was 6.05 each time.
Turning to `NCCSB(c1ccc(C(F)(F)F)cc1)c1ccc(C(F)(F)F)cc1` [Example 285, di(4-trifluoromethylphenyl) 2-aminoethylthioborane], the “TGase activity remaining (% of DMSO control = 100)” value in test [1] (setting [4]) and in test [1] (setting [5]) was 51 in each case. Besides, the x-Fold in test [2] (setting [6]) and in test [2] (setting [7]) was 0.99 each time. Moreover, the pIC50 in test [3] (setting [8]) and in test [3] (setting [9]) was 5.70 throughout.
On to `Cc1ccc(B(OC(=O)C(N)C(C)O)c2ccc(C)c(Cl)c2)cc1Cl` (centres unmarked) [Example 291, di(3-chloro-4-methylphenyl)(allothreoninate-O,N)borane], for which the “TGase activity remaining (% of DMSO control = 100)” value in test [1] (setting [4]) and in test [1] (setting [5]) was 50 throughout. In addition, the x-Fold in test [2] (setting [6]) and in test [2] (setting [7]) was 1.02 in each case. The pIC50 in test [3] (setting [8]) and in test [3] (setting [9]) was 6.30 throughout.
With `CCCCC(N)C(=O)OB(c1ccc(C)c(Cl)c1)c1ccc(C)c(Cl)c1` (centres unmarked) [Example 292, di(3-chloro-4-methylphenyl)(norloysinate-O,N)borane], the “TGase activity remaining (% of DMSO control = 100)” value in test [1] (setting [4]) came out at 146; in test [1] (TGase inhibitory activity value, Table 1, listed as 5020) it was 146. For the same compound, the x-Fold stood at 1.00 in test [2] (polyglutamine aggregation inhibitory activity, Table 1, listed as 5020) and 1.00 in test [2] (setting [7]). For the same compound, the negative-log IC50 (pIC50) in test [3] (setting [8]) and in test [3] (setting [9]) was 6.00 throughout.
With `CN(C)CCSB(c1ccccc1)c1ccccc1` [Example 294, diphenyl dimethylaminoethylthioborane], the “TGase activity remaining (% of DMSO control = 100)” value in test [1] (setting [4]) and in test [1] (setting [5]) was 114 throughout. The x-Fold in test [2] (setting [6]) and in test [2] (setting [7]) was 0.96 in each case. In addition, the negative-log IC50 (pIC50) in test [3] (setting [8]) and in test [3] (setting [9]) was 5.70 throughout.
For `Cc1ccc(B(SCCN(C)C)c2ccc(C)c(Cl)c2)cc1Cl` [Example 295, di(3-chloro-4-methylphenyl)dimethylaminoethylthioborane], the “TGase activity remaining (% of DMSO control = 100)” value in test [1] (setting [4]) and in test [1] (setting [5]) was 107 throughout. Moreover, the x-Fold in test [2] (setting [6]) and in test [2] (setting [7]) was 0.92 in each case. For the same compound, the negative-log IC50 (pIC50) in test [3] (setting [8]) and in test [3] (setting [9]) was 6.10 in each case.
`NC(=O)NCCCC(N)C(=O)OB(c1ccccc1)c1ccccc1` (centres unmarked) [Example 307, diphenyl(citrullinate-O,N)borane]: the “TGase activity remaining (% of DMSO control = 100)” value in test [1] (setting [4]) and in test [1] (setting [5]) was 54 each time. Further, the x-Fold in test [2] (setting [6]) and in test [2] (setting [7]) was 1.06 throughout. The pIC50 in test [3] (setting [8]) and in test [3] (setting [9]) was 6.30 each time.
Regarding `NCCCC(N)C(=O)OB(c1ccccc1)c1ccccc1` (centres unmarked) [Example 308, diphenyl(ornithinate-O,N)borane], the “TGase activity remaining (% of DMSO control = 100)” value worked out at 27 in test [1] (setting [4]) and 27 in test [1] (TGase inhibitory activity value, Table 1, listed as 7020). The x-Fold in test [2] (polyglutamine aggregation inhibitory activity, Table 1, listed as 7020) came to 1.05; in test [2] (setting [7]), 1.05. Also, the pIC50 in test [3] (setting [8]) and in test [3] (setting [9]) was 6.30 in each case.
Take `Cc1ccc(B(O)c2ccc(COCc3ccc(B(O)c4ccc(C)c(Cl)c4)cc3)cc2)cc1Cl` [Example 322, bis(4,4′-(3-chloro-4-methylphenylhydroxyboryl)benzyl)ether]: the “TGase activity remaining (% of DMSO control = 100)” value in test [1] (setting [4]) is given as 98. In addition, in test [2] (setting [7]), the x-Fold came out at 0.32. The negative-log IC50 (pIC50) in test [3] (setting [10]) was 6.70.
Turning to `OB(c1ccc(Oc2ccc(B(O)c3ccc(C(F)(F)F)cc3)cc2)cc1)c1ccc(C(F)(F)F)cc1` [Example 325, bis(4-(4-trifluoromethylphenylhydroxyboryl)phenyl)ether], the “TGase activity remaining (% of DMSO control = 100)” value in test [1] (setting [4]) and in test [1] (setting [5]) was 92 each time. Besides, the x-Fold in test [2] (setting [6]) and in test [2] (setting [7]) was 0.99 in each case. In addition, the negative logarithm of the IC50 (pIC50) in test [3] (setting [8]) and in test [3] (setting [9]) was 5.40 throughout.
With `OB(c1ccccc1)c1ccc(COCc2ccccc2B(O)c2ccccc2)cc1` [Example 331, (2-(phenylhydroxyboryl)benzyl)(4-(phenylhydroxyboryl)benzyl)ether], the “TGase activity remaining (% of DMSO control = 100)” value in test [1] (setting [4]) and in test [1] (setting [5]) was 101 throughout. Also, the x-Fold in test [2] (setting [6]) and in test [2] (setting [7]) was 0.98 in each case. In addition, the pIC50 in test [3] (setting [8]) and in test [3] (setting [9]) was 6.00 each time.
For `NCCOB(c1ccccc1)c1ccc(COCc2cccc(B(OCCN)c3ccccc3)c2)cc1` [Example 332, (3-(phenylaminoethoxyboryl)benzyl)(4-(phenylaminoethoxyboryl)benzyl)ether], the “TGase activity remaining (% of DMSO control = 100)” value in test [1] (setting [4]) and in test [1] (setting [5]) was 21 each time. Besides, the x-Fold in test [2] (setting [6]) and in test [2] (setting [7]) was 0.98 throughout. For the same compound, the pIC50 in test [3] (setting [8]) and in test [3] (setting [9]) was 6.70 in each case.
